Measurements as given in the supplement of paper PMC4862054.

Tests used:
Conditions in all cases: incubation time: 72 h
BT-549 [1] = experiment: normalised response (% of control), CellTiter-Glo; higher = more viable cells (100 = DMSO, 0 = benzethonium chloride kill control)
Experimental: (§1)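 DSRT, 72 h incubation, CellTox Green / CellTiter-Glo readout. Signal is normalised to DMSO and benzethonium chloride controls. Value is the normalised response at the highest dose.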

MDA-MB-453 [2] = experiment: as above
Experimental: as §1

HDQ-P1 [3] = experiment: as above
Experimental: as §1

MCF-10A [4] = experiment: as above
Experimental: as §1

SK-BR-3 = experiment: as above
Experimental: as §1

CAL-148 [5] = experiment: as above
Experimental: as §1

CAL-120 [6] = experiment: as above
Experimental: as §1

CAL-51 [7] = experiment: as above
Experimental: as §1

Hs578T [8] = experiment: as above
Experimental: as §1

MDA-MB-231 [9] = experiment: as above
Experimental: as §1

CAL-85-1 [10] = experiment: as above
Experimental: as §1

MDA-MB-468 [11] = experiment: as above
Experimental: as §1

HCC1937 [12] = experiment: as above
Experimental: as §1

DU-4475 [13] = experiment: as above
Experimental: as §1

BT-474 [14] = experiment: as above
Experimental: as §1

MDA-MB-436 [15] = experiment: as above
Experimental: as §1

HCC1599 [16] = experiment: as above
Experimental: as §1

HCC1143 [17] = experiment: as above
Experimental: as §1

MFM-223 [18] = experiment: as above
Experimental: as §1

BT-549 [19] = experiment: normalised response (% of control), CellTox Green; higher = less cell death (100 = DMSO, 0 = benzethonium chloride kill control)
Procedure, shortened: (§2)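 Each entry is the normalised signal at a single concentration within a series. The series comprised 5 concentrations in 10-fold steps over a compound-specific 10,000-fold range, placed in 384-well plates into which breast cancer cell lines were seeded as 20 µl suspension and incubated 72 h. CellTox Green (485/520 nm) fluorescence and then CellTiter-Glo luminescence were read, with signals normalised per plate to 0.1 % DMSO (100) and a positive kill control (0).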

MDA-MB-453 [20] = experiment: as above
Procedure, shortened: as §2

HDQ-P1 [21] = experiment: as above
Procedure, shortened: as §2

MCF-10A [22] = experiment: as above
Procedure, shortened: as §2

CAL-148 [23] = experiment: as above
Procedure, shortened: as §2

CAL-120 [24] = experiment: as above
Procedure, shortened: as §2

CAL-51 [25] = experiment: as above
Procedure, shortened: as §2

Hs578T [26] = experiment: as above
Procedure, shortened: as §2

MDA-MB-231 [27] = experiment: as above
Procedure, shortened: as §2

CAL-85-1 [28] = experiment: as above
Procedure, shortened: as §2

MDA-MB-468 [29] = experiment: as above
Procedure, shortened: as §2

HCC1937 [30] = experiment: as above
Procedure, shortened: as §2

DU-4475 [31] = experiment: as above
Procedure, shortened: as §2

BT-474 [32] = experiment: as above
Procedure, shortened: as §2

MDA-MB-436 [33] = experiment: as above
Procedure, shortened: as §2

HCC1599 [34] = experiment: as above
Procedure, shortened: as §2

HCC1143 [35] = experiment: as above
Procedure, shortened: as §2

MFM-223 [36] = experiment: as above
Procedure, shortened: as §2

In the case of `N[C@@H](Cc1ccc(N(CCCl)CCCl)cc1)C(=O)O` [Melphalan] (12500 nM), the normalised response (BT-549 [1]) is reported as 0.03%, the normalised response (MDA-MB-453 [2]) is reported as 0.28% and the normalised response (HDQ-P1 [3]) is reported as 0.84%. For the same molecule, the normalised response (MCF-10A [4]) was 0.08%, the normalised response (SK-BR-3) was -0.14% and the normalised response (CAL-148 [5]) was 1.23%. The normalised response (CAL-120 [6]) was 3.52%, the normalised response (CAL-51 [7]) was 0.13% and the normalised response (Hs578T [8]) was -0.1%. The normalised response (MDA-MB-231 [9]) was 0.1%, the normalised response (CAL-85-1 [10]) was 0.13% and the normalised response (MDA-MB-468 [11]) was 0.28%. It also gave a normalised response (HCC1937 [12]) of 3.24%, a normalised response (DU-4475 [13]) of 0.09% and a normalised response (BT-474 [14]) of 2.03%. It also gave a normalised response (MDA-MB-436 [15]) of 0.88%, a normalised response (HCC1599 [16]) of 0.01% and a normalised response (HCC1143 [17]) of 0.96%. The normalised response (MFM-223 [18]) was 0.21%, the normalised response (BT-549 [19]) was -143% and the normalised response (MDA-MB-453 [20]) was -17.4%. It also gave a normalised response (HDQ-P1 [21]) of -14.5%, a normalised response (MCF-10A [22]) of -119% and a normalised response (CAL-148 [23]) of -8.15%. It also gave a normalised response (CAL-120 [24]) of -41.5%, a normalised response (CAL-51 [25]) of -37.5% and a normalised response (Hs578T [26]) of -177%. For the same molecule, the normalised response (MDA-MB-231 [27]) was -127%, the normalised response (CAL-85-1 [28]) was -78.3% and the normalised response (MDA-MB-468 [29]) was -317%. It also gave a normalised response (HCC1937 [30]) of -39.4%, a normalised response (DU-4475 [31]) of -7.06% and a normalised response (BT-474 [32]) of -70.3%. For the same molecule, the normalised response (MDA-MB-436 [33]) was -19.3%, the normalised response (HCC1599 [34]) was 18.8% and the normalised response (HCC1143 [35]) was -23.3%. The normalised response (MFM-223 [36]) was -19.4%.

`CN1CCc2c(c3ccccc3n2Cc2ccc(C(=O)NO)cc2)C1` [Tubastatin A] (10000 nM) was tested, and the normalised response (BT-549 [1]) was 75%, the normalised response (MDA-MB-453 [2]) was 57.4% and the normalised response (HDQ-P1 [3]) was 73.3%. It also gave a normalised response (MCF-10A [4]) of 98.5%, a normalised response (SK-BR-3) of 42.2% and a normalised response (CAL-148 [5]) of 77.3%. It also gave a normalised response (CAL-120 [6]) of 84.1%, a normalised response (CAL-51 [7]) of 39.3% and a normalised response (Hs578T [8]) of 87.9%. It also gave a normalised response (MDA-MB-231 [9]) of 72%, a normalised response (CAL-85-1 [10]) of 72.5% and a normalised response (MDA-MB-468 [11]) of 66.4%. The normalised response (HCC1937 [12]) was 70.1%, the normalised response (DU-4475 [13]) was 79.9% and the normalised response (BT-474 [14]) was 75.4%. The normalised response (MDA-MB-436 [15]) was 72.3%, the normalised response (HCC1599 [16]) was 85.3% and the normalised response (HCC1143 [17]) was 47.1%. For the same molecule, the normalised response (MFM-223 [18]) was 87%, the normalised response (BT-549 [19]) was 87.1% and the normalised response (MDA-MB-453 [20]) was 91.3%. For the same molecule, the normalised response (HDQ-P1 [21]) was 106%, the normalised response (MCF-10A [22]) was 99.6% and the normalised response (CAL-148 [23]) was 80.1%. It also gave a normalised response (CAL-120 [24]) of 99.3%, a normalised response (CAL-51 [25]) of -14.9% and a normalised response (Hs578T [26]) of 122%. It also gave a normalised response (MDA-MB-231 [27]) of 49.3%, a normalised response (CAL-85-1 [28]) of 80.3% and a normalised response (MDA-MB-468 [29]) of 41.7%. It also gave a normalised response (HCC1937 [30]) of 61.3%, a normalised response (DU-4475 [31]) of 93.7% and a normalised response (BT-474 [32]) of 86.9%. The normalised response (MDA-MB-436 [33]) was 79.8%, the normalised response (HCC1599 [34]) was 90.1% and the normalised response (HCC1143 [35]) was 55.3%. For the same molecule, the normalised response (MFM-223 [36]) was 84.2%.

`CCc1c(C(=O)C(N)=O)c2c(OCC(=O)O)cccc2n1Cc1ccccc1` [Varespladib] (10000 nM) gave a normalised response (BT-549 [1]) of 99.8%, a normalised response (MDA-MB-453 [2]) of 102% and a normalised response (HDQ-P1 [3]) of 98.8%. It also gave a normalised response (MCF-10A [4]) of 100%, a normalised response (SK-BR-3) of 103% and a normalised response (CAL-148 [5]) of 109%. It also gave a normalised response (CAL-120 [6]) of 115%, a normalised response (CAL-51 [7]) of 97.3% and a normalised response (Hs578T [8]) of 99.3%. The normalised response (MDA-MB-231 [9]) was 95.7%, the normalised response (CAL-85-1 [10]) was 104% and the normalised response (MDA-MB-468 [11]) was 97.7%. For the same molecule, the normalised response (HCC1937 [12]) was 96.7%, the normalised response (DU-4475 [13]) was 91.3% and the normalised response (BT-474 [14]) was 99.2%. It also gave a normalised response (MDA-MB-436 [15]) of 101%, a normalised response (HCC1599 [16]) of 95.1% and a normalised response (HCC1143 [17]) of 101%. It also gave a normalised response (MFM-223 [18]) of 105%, a normalised response (BT-549 [19]) of 103% and a normalised response (MDA-MB-453 [20]) of 101%. It also gave a normalised response (HDQ-P1 [21]) of 97.1%, a normalised response (MCF-10A [22]) of 110% and a normalised response (CAL-148 [23]) of 98.3%. It also gave a normalised response (CAL-120 [24]) of 104%, a normalised response (CAL-51 [25]) of 108% and a normalised response (Hs578T [26]) of 121%. The normalised response (MDA-MB-231 [27]) was 102%, the normalised response (CAL-85-1 [28]) was 93.6% and the normalised response (MDA-MB-468 [29]) was 109%. It also gave a normalised response (HCC1937 [30]) of 72.7%, a normalised response (DU-4475 [31]) of 97.5% and a normalised response (BT-474 [32]) of 99.6%. It also gave a normalised response (MDA-MB-436 [33]) of 105%, a normalised response (HCC1599 [34]) of 102% and a normalised response (HCC1143 [35]) of 103%. It also gave a normalised response (MFM-223 [36]) of 90%.
